Data as given in patent US11096923B2, “Pharmaceutical composition containing polymyxin B/trimethoprim based therapeutics” (University of Rochester, priority 2016, dated 2021).

Legend:
P. aeruginosa [1] = assay: MIC of clinical P. aeruginosa ocular isolates (antibiotic susceptibility profiles); format: cell-based, Pseudomonas aeruginosa; details: for MIC: Pseudomonas aeruginosa, read-out: Minimum Inhibitory Concentration
Text: A series of genotyping and biological assays were used as a preliminary means to evaluate the clonality of clinical P. aeruginosa isolates collected, as follows. Genomic DNA was purified from each isolate using Qiagen DNeasy kits (Hilden, Germany) and used as a template for polymerase chain reactions to detect the presence of the virulence factors exoS, exoY, exoU, exoT, and perV using previously published primers (Table 1). See Allewelt M, Coleman F T, Grout M, Priebe G P, Pier G B. Acquisition of expression of the Pseudomonas aeruginosa ExoU cytotoxin leads to increased bacterial virulence in a murine model of acute pneumonia and systemic spread. Infection and immunity 2000; 68:3998-4004, Lomholt J A, Poulsen K, Kilian M. Epidemic population structure of Pseudomonas aeruginosa: evidence for a clone that is pathogenic to the eye and that has a distinct combination of virulence factors. Infection and immunity 2001; 69, and Ledbetter E C, Mun J J, Kowbel D, Fleiszig S M. Pathogenic phenotype and genotype of Pseudomonas aeruginosa isolates from spontaneous canine ocular infections. Investigative ophthalmology & visual science 2009; 50. […] See Institute C. Performance Standards for Antimicrobial Susceptibility Testing: Twenty-fifth Informational Supplement. Each isolate's ability to form biofilms was quantified. To do so, wells of a polystyrene plate containing 72-hour established biofilms were washed with 0.8% NaCl to remove non adherent cells and stained with crystal violet. To quantify biofilm staining, plates were washed 3 times with H2O, stain was suspended in 30% glacial acetic acid and the optical density (OD600nm) of each well was determined using an automated plate reader, as previously described. See Jacobs A C, Blanchard C E, Catherman S C, Dunman P M, Murata Y. An ribonuclease T2 family protein modulates Acinetobacter baumannii abiotic surface colonization. PloS one 2014; 9.

P. aeruginosa [2] = assay: Fractional inhibitory concentration, checkerboard MIC; format: cell-based, Pseudomonas aeruginosa
S. aureus = assay: as above; format: cell-based, Staphylococcus aureus; details: S. aureus UAMS-1
P. aeruginosa PAO1 = assay: Selleck library screen in presence of sub-inhibitory polymyxin B/trimethoprim; format: cell-based, Pseudomonas aeruginosa; set-up: key: Growth (+); no growth (−); details: for P. aeruginosa growth, 5 μM: drug 5 μM in presence of 0.2 μg ml^−1 polymyxin B/trimethoprim; for P. aeruginosa growth, 50 μM: drug 50 μM in presence of 0.2 μg ml^−1 polymyxin B/trimethoprim
Protocol: (§1) To identify agents that potentiate the antimicrobial activity of polymyxin B/trimethoprim we first determined the highest concentration of the polymyxin B/trimethoprim combination that allowed growth of P. aeruginosa strain PAO1 and S. aureus strain UAMS-1.
For Selleck library screening, individual wells of 96-well microtiter plates containing 88 μl of fresh media were inoculated with approximately 10^5 CFUs of P. aeruginosa strain PAO1 or S. aureus UAMS-1. Next, 2 μl of polymyxin B/trimethoprim was added to a final concentration of 0.2 μg ml^−1 or 1.25 μg ml^−1 for PA01 and UAMS-1, respectively. Library members were then added at either 5 μM or 50 μM final concentration. Plates were incubated at 37° C. for 16 hours and hits were identified as wells with no visible growth. […]

P. aeruginosa biofilm = tested on: P. aeruginosa biofilm; set-up: key: Killing (+) of established biofilms; details: established biofilms; adenylate kinase reporter; Blanchard et al., 2016; cited from earlier work
S. aureus UAMS-1 = assay: Selleck library screen in presence of sub-inhibitory polymyxin B/trimethoprim; format: cell-based, Staphylococcus aureus; set-up: key: Growth (+); no growth (−); details: for S. aureus growth, 5 μM: drug 5 μM in presence of 1.2 μg ml^−1 polymyxin B/trimethoprim; for S. aureus growth, 50 μM: drug 50 μM in presence of 1.2 μg ml^−1 polymyxin B/trimethoprim
Protocol: as §1
For Selleck library screening, individual wells of 96-well microtiter plates containing 88 μl of fresh media were inoculated with approximately 10^5 CFUs of P. aeruginosa strain PAO1 or S. aureus UAMS-1. Next, 2 μl of polymyxin B/trimethoprim was added to a final concentration of 0.2 μg ml^−1 or 1.25 μg ml^−1 for PA01 and UAMS-1, respectively. Library members were then added at either 5 μM or 50 μM final concentration. Plates were incubated at 37° C. for 16 hours and hits were identified as wells with no visible growth.
To do so, 10^5 CFUs of S. aureus strain UAMS-1 were inoculated in individual wells of a microtiter plate supplemented with 1.2 μg ml^−1 of polymyxin B/trimethoprim, (0.25×MIC). Library members were added at low (5 μM) or high (50 μM) concentrations and then scored for agents that inhibited growth following overnight incubation. Such agents were expected to represent compounds that display antimicrobial activity on their own and/or that potentiate the antimicrobial activity of polymyxin B/trimethoprim.

MRSA keratitis isolates = MRSA keratitis isolates collected between 1993 and 2012; cited from earlier work
[3] = P. aeruginosa ocular isolate RW01 (cornea)
[4] = P. aeruginosa ocular isolate RW02 (cornea)
[5] = P. aeruginosa ocular isolate RW03 (cornea)
[6] = P. aeruginosa ocular isolate RW04 (conjunctiva)
[7] = P. aeruginosa ocular isolate RW05 (cornea)
[8] = P. aeruginosa ocular isolate RW06 (cornea)
[9] = P. aeruginosa ocular isolate RW07 (cornea)

Row | Compound | P. aeruginosa growth, 5 μM (P. aeruginosa PAO1) | P. aeruginosa growth, 50 μM (P. aeruginosa PAO1) | P. aeruginosa biofilm AK Signal (P. aeruginosa biofilm) | S. aureus growth, 5 μM (S. aureus UAMS-1) | S. aureus growth, 50 μM (S. aureus UAMS-1) | further results
1 | CC1(C)S[C@@H]2[C@H](NC(=O)[C@H](N)c3ccccc3)C(=O)N2[C@H]1C(=O)O [Ampicillin, ampicillin] |  |  |  |  |  | MIC (P. aeruginosa [1]; [3]): 50 µg/mL; MIC (P. aeruginosa [1]; [4]): 50 µg/mL; MIC (P. aeruginosa [1]; [5]): 50 µg/mL; MIC (P. aeruginosa [1]; [6]): 50 µg/mL; MIC (P. aeruginosa [1]; [7]): 100 µg/mL; MIC (P. aeruginosa [1]; [8]): 100 µg/mL; MIC (P. aeruginosa [1]; [9]): 50 µg/mL
2 | N[C@@H]1CCCCN(c2c(F)cc3c(=O)c(C(=O)O)cn(C4CC4)c3c2Cl)C1 [Besifloxacin, besifloxacin] | − | − | + | − | − | MIC in combination (P. aeruginosa [2]; P. aeruginosa PAO1, PT combined with besifloxacin): 0.78 µg/mL; MIC (P. aeruginosa [2]; Pseudomonas aeruginosa, PAO1, P. aeruginosa PAO1): 1.56 µg/mL; MIC in combination (S. aureus; PT combined with besifloxacin): 0.06 µg/mL; MIC (S. aureus; Staphylococcus aureus): 0.12 µg/mL
3 | CO/N=C(\C(=O)N[C@@H]1C(=O)N2C(C(=O)O)=C(CSc3nc(=O)c(=O)[nH]n3C)CS[C@H]12)c1csc(N)n1 [Ceftriaxone, ceftriaxone] |  |  |  |  |  | MIC (P. aeruginosa [1]; [3]): 13 µg/mL; MIC (P. aeruginosa [1]; [4]): 26 µg/mL; MIC (P. aeruginosa [1]; [5]): 26 µg/mL; MIC (P. aeruginosa [1]; [6]): 26 µg/mL; MIC (P. aeruginosa [1]; [7]): 13 µg/mL; MIC (P. aeruginosa [1]; [8]): 52 µg/mL; MIC (P. aeruginosa [1]; [9]): 26 µg/mL
4 | NC1CCN(c2c(F)cc3c(=O)c(C(=O)O)cn(C4CC4)c3c2Cl)C1 (stereo not shown) [Clinafloxacin, clinafloxacin] | − | − | + | − | − | 
5 | CN1C[C@@H]2C[C@H]1CN2c1cc2c(cc1F)c(=O)c(C(=O)O)cn2C1CC1 [Danofloxacin, danofloxacin] | − | − | + | − | − | 
6 | CCN1CCN(c2cc3c(cc2F)c(=O)c(C(=O)O)cn3C2CC2)CC1 [Enrofloxacin, enrofloxacin] | − | − | + | − | − | 
7 | C[C@H]1COc2c(N3CCN(C)CC3)c(F)cc3c(=O)c(C(=O)O)cn1c23 [Levofloxacin, levofloxacin] | − | − |  | + | − | 
8 | CCn1cc(C(=O)O)c(=O)c2cc(F)c(N3CCNC(C)C3)c(F)c21 (stereo not shown) [Lomefloxacin, lomefloxacin] | − | − | + | − | − | 
9 | CC1CCc2c(N3CCC(O)CC3)c(F)cc3c(=O)c(C(=O)O)cn1c23 (stereo not shown) [Nadifloxacin, nadifloxacin] | − | − | + | − | − | 
10 | CCn1cc(C(=O)O)c(=O)c2cc(F)c(N3CCN(C)CC3)cc21 [Pefloxacin, pefloxacin] | − | − | + | − | − | 
11 | CO[C@H]1/C=C/O[C@@]2(C)Oc3c(C)c(O)c4c(c3C2=O)C2=NC3(CCN(CC(C)C)CC3)NC2=C(NC(=O)/C(C)=C\C=C\[C@H](C)[C@H](O)[C@@H](C)[C@@H](O)[C@@H](C)[C@H](OC(C)=O)[C@@H]1C)C4=O [Rifabutin, rifabutin] | − | − | + | − | − | 
12 | CO[C@H]1/C=C/O[C@@]2(C)Oc3c(C)c(O)c4c(O)c(c(/C=N/N5CCN(C6CCCC6)CC5)c(O)c4c3C2=O)NC(=O)/C(C)=C\C=C\[C@H](C)[C@H](O)[C@@H](C)[C@@H](O)[C@@H](C)[C@H](OC(C)=O)[C@@H]1C [Rifapentine, rifapentine] | − | − | + | − | − | 
13 | CO[C@H]1/C=C/O[C@@]2(C)Oc3c(C)c(O)c4c(O)c(c5c(nc6cc(C)ccn65)c4c3C2=O)NC(=O)/C(C)=C\C=C\[C@H](C)[C@H](O)[C@@H](C)[C@@H](O)[C@@H](C)[C@H](OC(C)=O)[C@@H]1C [Rifaximin, rifaximin] | − | − | + | − | − | 
14 | O=C(O)c1cn(-c2ccc(F)cc2)c2cc(N3CCNCC3)c(F)cc2c1=O [Sarafloxacin, sarafloxacin] | − | − | + | − | − | 
15 | N[C@@H]1CN(c2c(F)cc3c(=O)c(C(=O)O)cn([C@@H]4C[C@@H]4F)c3c2Cl)CC12CC2 [Sitafloxacin, sitafloxacin] | − | − | + | − | − | 
16 | C[C@@H]1CN(c2c(F)c(N)c3c(=O)c(C(=O)O)cn(C4CC4)c3c2F)C[C@H](C)N1 [Sparfloxacin, sparfloxacin] | − | − | + | − | − | 
17 | COc1c(N2CCNC(C)C2)c(F)cc2c(=O)c(C(=O)O)cn(C3CC3)c12 (stereo not shown) [gatifloxacin] |  |  |  |  |  | isolates displaying resistance (MRSA keratitis isolates): ~45.9%
18 | Cc1cc(NS(=O)(=O)c2ccc(N)cc2)no1 [sulfamethoxazole] |  |  |  |  |  | isolates displaying resistance (MRSA keratitis isolates): 5.7%
19 | gentamycin |  |  |  |  |  | Minimum Inhibitory Concentration (P. aeruginosa [1]; [3]): 0.24 µg/mL; Minimum Inhibitory Concentration (P. aeruginosa [1]; [4]): 0.24 µg/mL; Minimum Inhibitory Concentration (P. aeruginosa [1]; [5]): 0.12 µg/mL; Minimum Inhibitory Concentration (P. aeruginosa [1]; [6]): 0.48 µg/mL; Minimum Inhibitory Concentration (P. aeruginosa [1]; [7]): 0.48 µg/mL; Minimum Inhibitory Concentration (P. aeruginosa [1]; [8]): 0.48 µg/mL; Minimum Inhibitory Concentration (P. aeruginosa [1]; [9]): 0.24 µg/mL
20 | neomycin |  |  |  |  |  | Minimum Inhibitory Concentration (P. aeruginosa [1]; [3]): 9.8 µg/mL; Minimum Inhibitory Concentration (P. aeruginosa [1]; [4]): 9.8 µg/mL; Minimum Inhibitory Concentration (P. aeruginosa [1]; [5]): 9.8 µg/mL; Minimum Inhibitory Concentration (P. aeruginosa [1]; [6]): 19.6 µg/mL; Minimum Inhibitory Concentration (P. aeruginosa [1]; [7]): 1 µg/mL; Minimum Inhibitory Concentration (P. aeruginosa [1]; [8]): 9.8 µg/mL; Minimum Inhibitory Concentration (P. aeruginosa [1]; [9]): 1 µg/mL
